One test deals with total PSA (tPSA). As to the kind of experiment: Serum total PSA in mice bearing LNCaP-AR tumors. The test is classed as in vivo. As to conditions: one, three, or seven days post-WST11 VTP (FIG. 5A). As to the method:
This assay measures free PSA and complexed PSA in an equimolar fashion [Ulmert et al., 2012; Mitrunen et al., 1995], and the cross-reactivity of PSA-ACT for free PSA is less than 0.2% [Pettersson et al., 1995]. The lower limits of detection are 0.1 ng/mL for both total PSA and free PSA. For detection, the 1235 automatic immunoassay system from Perkin-Elmer Life Sciences (Waltham, Mass.) was used.
(vii) Statistical analysis: Two-way ANOVA test using GraphPad Prism (GraphPad Software, La Jolla, Calif.) was used for therapeutic efficacy in affecting tumor growth, and One-way ANOVA for PSA and a Mann-Whitney test for CD31, Ki67 or TUNEL staining quantification. Differences with p values<0.05 were considered statistically significant.
To verify that AR activity was inhibited by the treatments, the levels of total PSA (tPSA) in serum of mice bearing LNCaP-AR tumors were measured. Serum tPSA values were determined in separate cohorts of mice at one, three, or seven days post-WST11 VTP (four, six or ten days post-degarelix).

A further test relates to low-risk, localized PCa. Particulars: cited from earlier work.
The subject of the next test is LNCaP-AR tumors. As to the kind of experiment: Histology and immunohistochemistry of treated tumors (TUNEL, AR, Ki67). The test is classed as in vivo, mice. Particulars: for TUNEL staining (cell death): tumors on days three and seven post-VTP (FIG. 5B). As to the method: (§1) (v) Histology and immunohistochemistry: All tumor specimens were fixed in 10% buffered formalin (Fisher Scientific, Pittsburgh, Pa.), processed routinely, embedded in paraffin, sectioned at 5-micron thickness, and stained with hematoxylin-eosin (H&E). Immunohistochemistry (IHC) of tumors was performed on 5 micron formalin-fixed paraffin embedded (FFPE) section following heat induced epitope retrieval (HIER) in a buffer at pH 9.0. AR staining with anti-AR antibody (at 0.66 μg/ml, Abcam, Cambridge, Mass.) and TUNEL staining for cell death with terminal deoxynucleotidyl transferase dUTP nick-end labeling (Roche Diagnostics, Indianapolis, Ind.) was performed using Discovery XT processor (Ventana Medical Systems, Inc., Tucson, Ariz.) at the Molecular Cytology core facility. IHC staining for CD31 and Ki67 markers was performed on FFPE sections at the Laboratory of Comparative Pathology on a Leica Bond RX automated stainer (Leica Biosystems, Buffalo Grove, Ill.). […] For quantification of CD31, Ki67 and TUNEL staining, whole slide digital images were generated on a scanner (Pannoramic 250 Flash III, 3DHistech, 20×/0.8NA objective, Budapest, Hungary) at a resolution of 0.2431 μm per pixel. Staining quantification was performed with QuPath 0.1.2 software (Centre for Cancer Research & Cell Biology, Queen's University Belfast, UK). […] For CD31 and TUNEL, the positive area, defined as the ratio of DAB stained pixels to total ROI area, was measured using the positive pixel count algorithm. For Ki67, the ratio (percentage) of cells with positive nuclear staining to total cell number was measured with the positive cell detection algorithm. […]
(§2) (vii) Statistical analysis: Two-way ANOVA test using GraphPad Prism (GraphPad Software, La Jolla, Calif.) was used for therapeutic efficacy in affecting tumor growth, and One-way ANOVA for PSA and a Mann-Whitney test for CD31, Ki67 or TUNEL staining quantification. […]

Test [1] deals with LNCaP-AR xenograft tumors. Briefly: GSEA transcriptome analysis of LNCaP-AR xenografts following VTP. The test is classed as in vivo, SCID mice. As to the method:
(vi) GSEA for transcriptome analysis of LNCaP-AR xenografts following VTP treatment: LNCaP/AR xenografts were established in intact SCID mice by injecting 2 million cells as described previously [Chen et al., 2004] and, once established, were treated with VTP at 9 mg/kg WST11 followed by 753 nm illumination at 100 mW/cm^2 laser fluence. Tumors were collected at 3, 6, or 24 hours, 1 week and 8.5 weeks post VTP and RNA was isolated following the standard protocol using TRIzol (Fisher Scientific). Expression profiling was performed using Illumina HT-12 Expression BeadChip array and the data was analyzed using Partek Genomics Suite (Partek Inc., St. Louis, Mo.). The microarray data then underwent secondary analysis by GSEA [Subramanian et al., 2005] using gene sets from the Hallmark and C2, Canonical Pathways collections (Molecular Signature Databases v6.0 (MSigDB); Broad Institute at http site //software.broadinstitute.org/gsea/msigdb.GSEA| MSigDB. Accessed 19 Jun. 2017. Microarray data has been deposited in the National Center for Biotechnology Information Gene Expression Omnibus (GEO) (GSE109681). To identify potential druggable pathways active in PCa that could be exploited for combination therapy with VTP, we analyzed the transcriptome of LNCaP-AR xenograft tumors following acute response to VTP exposure. […]

The test system of another test is CD31. As to the kind of experiment: CD31 IHC staining of tumors (vessel quantification). The test is classed as in vivo, mice. As to the method: as §1, with “9.0.” for “9.0. AR staining with anti-AR antibody (at 0.66 μg/ml, Abcam, Cambridge, Mass.) and TUNEL staining for cell death with terminal deoxynucleotidyl transferase dUTP nick-end labeling (Roche Diagnostics, Indianapolis, Ind.) was performed using Discovery XT processor (Ventana Medical Systems, Inc., Tucson, Ariz.) at the Molecular Cytology core facility. IHC staining for CD31 and Ki67 markers was performed on FFPE sections at the Laboratory of Comparative Pathology on a Leica Bond RX automated stainer (Leica Biosystems, Buffalo Grove, Ill.).”
as §2

Non-standard residues stand in square brackets, D forms with d. Residues, ends and D or L forms follow the SMILES beside them. *: point of attachment. dPhe(4-NHCONH2) = NC(=O)Nc1ccc(C[C@@H](N)C(=O)O)cc1; Dihydroorotyl(S) = O=C1C[C@@H](C(=O)*)NC(=O)N1; dPhe(4-Cl) = N[C@H](Cc1ccc(Cl)cc1)C(=O)O; Phe(4-NH2) = Nc1ccc(C[C@H](N)C(=O)O)cc1; d2Nal = N[C@H](Cc1ccc2ccccc2c1)C(=O)O; Lys(iPr) = CC(C)NCCCC[C@H](N)C(=O)O; d3Pal = N[C@H](Cc1cccnc1)C(=O)O

As to `CCC1c2cc3[n-]c(c(CC(=O)OC)c4nc(cc5[n-]c(cc(n2)C1C)c(C(C)=O)c5C)C(C)C4CCC(=O)[O-])c(C(=O)NCCS(=O)(=O)[O-])c3C.[K+].[K+].[Pd+2]` (centres unmarked) [WST11/VTP, Palladium 3^1-oxo-15-methoxycarbonylmethyl-rhodobacteriochlorin 13^1-(2-sulfoethyl) amide dipotassium salt], in the test on total PSA (tPSA), the “fold changes of serum tPSA” value is recorded as “declined”. Besides, in the test on low-risk, localized PCa (6 months after prostate hemiablation, low-risk localized PCa), the “patients negative for cancer in follow up biopsies” value was 80.6%. Further, the “HR of disease progression versus active surveillance” value in the test on low-risk, localized PCa (at 24 months, 95% CI 0.24-0.46, p<0.0001) is listed as 0.34. The disease progression with low-risk, localized PCa (at 24 months, active surveillance 58%) was 28%. Further, in the test on low-risk, localized PCa (median follow-up of 68 months), the “patients free of clinically significant cancer in the treated lobes” value is 82% and the “treated patients who avoided a need for subsequent radical therapy” value was 76%. The “TUNEL staining (cell death)” value with LNCaP-AR tumors is listed as “partial cell death characterized by large foci of TUNEL staining”. Moreover, in test [1] (three to six hours post-VTP treatment), the “gene sets related to hypoxia, HIF1A, and VEGFR pathways (GSEA)” value is listed as “statistically significant enrichments”. Moreover, the “AR signaling gene sets (GSEA)” value in test [1] (three to six hours post-VTP, vs control mice) was “up-regulated”.
`CC(=O)N[C@H](Cc1ccc2ccccc2c1)C(=O)N[C@H](Cc1ccc(Cl)cc1)C(=O)N[C@H](Cc1cccnc1)C(=O)N[C@@H](CO)C(=O)N[C@@H](Cc1ccc(NC(=O)[C@@H]2CC(=O)NC(=O)N2)cc1)C(=O)N[C@H](Cc1ccc(NC(N)=O)cc1)C(=O)N[C@@H](CC(C)C)C(=O)N[C@@H](CCCCNC(C)C)C(=O)N1CCC[C@H]1C(=O)N[C@H](C)C(N)=O` [degarelix] (Ac-[d2Nal][dPhe(4-Cl)][d3Pal]S[Phe(4-NH2)](Dihydroorotyl(S))[dPhe(4-NHCONH2)]L[Lys(iPr)]P[dA]-NH2): the “fold changes of serum tPSA” value with total PSA (tPSA) is “declined”. In the test with CD31 (FIG. 6A, versus control group), the “number of vessels in tumors by CD31 image analysis” value was “appear to have fewer vessels”. Also, the “decrease in CD31 staining area compared to controls” value with CD31 (degarelix-treated n=11 vs control n=12, p<0.05 (FIG. 6B)) is 38%. Also, the “Ki67 signal (tumor proliferation)” value with LNCaP-AR tumors (day 7 post-VTP, p<0.05 vs controls (FIG. 5C)) is listed as “reduced Ki67 signal compared to controls”. The “TUNEL staining (cell death)” value in the test on LNCaP-AR tumors is “little TUNEL staining”.

The values are drawn from patent US10933134B2, “Combination therapies for treatment of cancer” (priority 2017, dated 2021).
